These results are taken from patent US6676932B2, “Ultraviolet absorbent, photostabilizer, ultraviolet ray-absorbing composition, photostabilized composition and external preparation for skin” (Shiseido Co., Ltd., priority 2001, dated 2004).

Data set [1] in a line: Stability test in combination with inorganic powder-based ultraviolet shielding agent, sunscreen cream (Test Example 5). It is filed as physicochemical. To be noted: sunscreen cream with inorganic powders; ultraviolet absorbent 10.0 wt %; 50° C. for 2 months; visual observation. As to the method:
A sunscreen cream of the following formulation was prepared and stored at 50° C. for 2 months. Under visual observation of the color change, the stability of the inventive pyridazine derivative in combination with inorganic powder-based ultraviolet screening agents commonly in blend as external preparations for skin for the purpose of ultraviolet prevention was examined.
After the ingredient 2 was added to the ingredient 1 to swell the ingredient 2, the ingredients 3 to 11 were mixed with the resulting mixture under heating, for sufficient dispersion and dissolution. While keeping the dispersion at 70° C., a solution of the mixture of the ingredients 12 to 15 was gradually added to the dispersion under thorough emulsification with a homomixer. The resulting mixture was cooled to 30° C. under sufficient stirring to prepare sunscreen creams.

Data set [2] is described as follows: Photostability test of aqueous solutions under daylight (Test Example 4). It is filed as physicochemical. Conditions: aqueous solution, daylight for 2 weeks (80 MJ); for Change of area under ultraviolet spectrum: 290 nm to 400 nm. As to the method:
Aqueous solutions of the pyridazine derivative of the invention were exposed to daylight for 2 weeks (at a daylight exposure of 80 MJ). Subsequently, the remaining ratio and the change of the appearance were examined to measure the ultraviolet spectra with a spectrophotometer (solvent: water; concentration of 10 ppm and optical path length of 1 cm). The area under ultraviolet spectra curve from 290 nm to 400 nm were determined by integration to compare the area with the area before daylight exposure.
The remaining ratio and the change of the area under the ultraviolet spectrum were determined on the basis of the following standards.
⊚: 95% or more of those before daylight exposure.
◯: 90% or more to less than 95% of those before daylight exposure.
Δ: 70% or more to less than 90% of those before daylight exposure.
x: less than 70% of those before daylight exposure.

As to `Oc1nncc(N2CCCCC2)c1N1CCCCC1` [4,5-Dipiperidino-3-hydroxypyridazine], the Color change result in data set [1] was “no”. Further, in data set [2], the Remaining ratio result is “⊚ (95% or more of those before daylight exposure)” and the “Change of area under ultraviolet spectrum” value was “⊚ (95% or more of those before daylight exposure)”.
Take `Oc1cc(N2CCOCC2)cnn1` [3-Hydroxy-5-morpholinopyridazine, 3-hydroxy-5-morpholinopyridazine]: the Color change entry in data set [1] is “no”. Moreover, in data set [2], the Remaining ratio result was “⊚ (95% or more of those before daylight exposure)” and the “Change of area under ultraviolet spectrum” value is “⊚ (95% or more of those before daylight exposure)”.
